One may read the Papp A→B as the apparent permeability from the apical to the basolateral side of a cell layer.

Here are results for eight compounds from patent US20040167203A1, “Absorption enhancing agents” (priority 2003, published 2004).

Where two headings read alike, the source gives them in different places.

The test system of data set [1] is Caco-2 cell line. It counts as in vitro ADME, human. The source says:
(§1) The Caco-2 cell line is a well-recognized in vitro screening model, which both structurally and functionally represents the small intestinal epithelium. Caco-2 cells are derived from human colon carcinoma cells and differentiate in culture to form intestinal epithelia similar to that found in the small intestine. More specifically, Caco-2 cells form a brush border with normal enzymes, form tight junctions between cells, and acquire the barrier properties of an enterocyte sheet. […] The absorption enhancers were tested using two model drugs, sampatrilat and hydrochlorothiazide. In addition, a lactate dehydrogenase (LDH) assay was conducted after the permeation studies to evaluate the cytotoxicity of the absorption enhancers as well as to discover any violation of the integrity of the Caco-2 cells. LDH is a cytosolic enzyme that is not normally secreted outside the cell. However, it leaks into the culture medium upon damage to the cell membranes. In vitro release of LDH from cells provides an accurate measure of cell membrane integrity and cell viability. […] Wu, S.-J., et al, Pharmaceutical Res., 16(8): 1266-1272 (1999); Allen, M. J. et al., Promega Notes Magazine, Number 45, p. 7 (1994); or Ehrlich, M. et al, Current Protocols in Toxicology, John Wiley & Sons, New York (2000). LDH leakage into the apical compartment of the Caco-2 cell system was used to measure the effect, if any, of a given absorption enhancer on the viability of the Caco-2 cells.
Permeability coefficients are determined as previously reported by Yazdania et.el (Yazdanian M, Glynn, S I, Wright J L, et al. 1998. Correlating partitioning and Caco-2 permeability of structurally diverse small molecular weight compounds. Pharm Res 15:1490-1494). Briefly, drug solutions were prepared in HBSS at a known final concentration. For AP to BL experiments, the solution was placed on the apical side of the cells and samples were taken from basolateral side. In contrast, for BL to AP experiments, the solution was placed on the basolateral side of the cells and samples were taken from apical side. The samples are analyzed by an HPLC. Transport rates (J) are determined by plotting cumulative amounts of drug permeated as a function of time. Apparent permeability coefficients Pcaco-2, are determined according to the equation Pcaco-2=J/ACi where Ci is the initial concentration of the solution in donor chamber and A is the surface area of the filter.

In data set [2] the test system is Caco-2 cell line. As to the kind of experiment: in vitro. It is filed as in vitro ADME. To be noted: human, Caco-2, 1 % w/v.
Source text: as §1
(§2) Permeability coefficients are determined as previously reported by Yazdania et.el (Yazdanian M, Glynn, S I, Wright J L, et al. 1998. Correlating partitioning and Caco-2 permeability of structurally diverse small molecular weight compounds. Pharm Res 15:1490-1494). […] The samples are analyzed by an HPLC. Transport rates (J) are determined by plotting cumulative amounts of drug permeated as a function of time. Apparent permeability coefficients Pcaco-2, are determined according to the equation Pcaco-2=J/ACi where Ci is the initial concentration of the solution in donor chamber and A is the surface area of the filter. […]

The next data set has as its system Caco-2 cells. Put plainly: Lactate dehydrogenase (LDH) leakage assay after permeation studies. It counts as cell-based, human. To be noted: relative to cells treated with Hank's balanced salt solution alone.
Source text: as §1

Another data set can be described thus: in vitro. It counts as in vitro ADME. To be noted: human, Caco-2.
Source text: as §1, §2

The test system of data set [3] is Caco-2 cell line. It counts as in vitro ADME. To be noted: human, Caco-2, 1.8 mg/mL. The protocol:
The original cell line integrity and the effect of excipients on the integrity of cell line were also tested by measuring the flux of ^14C-mannitol.

Regarding `O=C1CCCCCCCCCCCCCCO1` [Cyclopentadecanolide, cyclopentadecanolide], in the data set with Caco-2 cell line [1], the “Potency in permeability enhancement (in words)” value (from here on “Potency”) is reported as “low or no potency”.

With `CC1(C)[C@@H](O)CC[C@]2(C)[C@H]3C(=O)C=C4[C@@H]5C[C@@](C)(C(=O)O)CC[C@]5(C)CC[C@@]4(C)[C@]3(C)CC[C@@H]12` [Glycyrrehetinic acid, 18 β-glycyrrhetinic acid], the “Potency” value in the data set on Caco-2 cell line [1] (human) is reported as “low or no potency”.

With `CN(C)CC(=O)O` [N,N-dimethylglycine], in the data set on Caco-2 cell line [2], the “Effect on sampatrilat permeation across the Caco-2 cell line (in words)” value is listed as “significantly increase”. In addition, the “Cytotoxicity (LDH assay)” value in the data set on Caco-2 cells was “not cytotoxic”.

Consider `O=C(/C=C/C=C/c1ccc2c(c1)OCO2)N1CCCCC1` [Piperine, piperine], for which the “Potency” value in the data set with Caco-2 cell line [1] (human) was “low or no potency”.

The compound `CS(=O)(=O)N[C@@H](CCCCN)C(=O)NC[C@H](CC1(C(=O)N[C@@H](Cc2ccc(O)cc2)C(=O)O)CCCC1)C(=O)O` [Sampatrilat] yielded a Papp A→B at 1.8 mg/mL in “in vitro” of 0.16 ×10⁻⁶ cm/s. Moreover, in the data set on Caco-2 cell line [3], the “Permeability Coefficient, Mannitol” value was 4.9 10E−7 cm/s.

In the case of `O=C(O)CCCCCCCCC(=O)O` [Sebacic acid, sebacic acid], in the data set with Caco-2 cell line [2], the “Effect on sampatrilat permeation across the Caco-2 cell line (in words)” value is on record as “significantly increase”. Further, in the data set on Caco-2 cells, the “Cytotoxicity (LDH assay)” value is on record as “not cytotoxic”.

Turning to `O=C(O)C1=C[C@@H](O)[C@@H](O)[C@H](O)C1` [Shikimic acid, shikimic acid], the “Cytotoxicity (LDH assay)” value in the data set on Caco-2 cells was “not cytotoxic”.

Take Vitamin E TPGS [Vitamin E TGPS]: the “Potency” value in the data set with Caco-2 cell line [1] is given as “low or no potency”.
